Measurements reported in patent publication US20260176289A1, “SMALL MOLECULE INHIBITORS OF KRAS PROTEINS” (Merck Sharp & Dohme LLC, priority 2022, published 2026).

Experiments:
Assay type in all cases: biochemical
[1] = molecular target: T1, KRAS G12C (amino acids 1-169) (Homo sapiens, UniProt P01116, G12C); assay: SOS-catalyzed nucleotide exchange assay (Procedure B, BODIPY FL GDP displacement), KRAS G12C; conditions: read-out: KRAS G12C GNE IC50
T1 construct: made in house; host or cells: E. coli
T1 sequence (P01116 with tags, fused parts or gaps isoform P01116-2 G12C): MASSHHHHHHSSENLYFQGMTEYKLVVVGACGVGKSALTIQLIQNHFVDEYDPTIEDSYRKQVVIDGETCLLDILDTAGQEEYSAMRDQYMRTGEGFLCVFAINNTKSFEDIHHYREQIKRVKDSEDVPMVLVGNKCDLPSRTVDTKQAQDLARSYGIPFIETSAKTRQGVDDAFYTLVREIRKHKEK
Description: (§1) Procedure for SOS-Catalyzed Nucleotide Exchange Assay for KRAS-G12C/D/V/WT (Procedure B)
(§2) Recombinant KRAS G12C (amino acids 1-169, SEQ ID NO:9), KRAS G12D (amino acids 1-169, SEQ ID NO: 10), KRAS G12V (amino acids 1-169, SEQ ID NO: 11), KRAS WT (amino acids 1-169, SEQ ID NO:12) and SOS1 (amino acids 564-1049, SEQ ID NO: 13) proteins were expressed in E. coli and purified by affinity chromatography. To prepare each BODIPY™ FL GDP-bound KRAS protein, 50 μM KRAS proteins were incubated with 0.5 mM BODIPY™ FL GDP (Invitrogen, G22360) in a loading buffer (20 mM Tris-HCl pH 7.5, 50 mM NaCl, 1 mM DTT and 2.5 mM EDTA) for 1 hour on ice. After the incubation, MgCl2 was added to a final concentration of 10 mM, followed by an incubation at room temperature for 30 minutes. The mixtures were allowed to pass through a NAP-5 column to remove free nucleotides and purified BODIPY™ FL GDP-bound KRAS G12C, G12D, G12V and WT proteins were used for compound evaluation.
(§3) The inhibitory activity of compounds on recombinant KRAS is measured by the displacement of the bound BODIPY™ GDP. Specifically, 2.5 nM of each BODIPY™ FL GDP-bound KRAS complex was incubated with various concentrations of compound in a reaction buffer (20 mM Tris-HCl pH 7.5, 100 mM NaCl, 1 mM MgCl2, 2 mM DTT, 0.1% Tween 20) at 25° C. for 1 hour. After the incubation, recombinant SOS1 and GMPPNP (Jena Bioscience GmbH, NU-401) were added and incubated at room temperature for 30 minutes to proceed SOS1-dependent GDP-GTP exchange reaction on KRAS. Displacement of BODIPY™ FL GDP by Guanosine-5′-[(β,γ)-imido]triphosphate, Tetralithium salt (GMPPNP) was measured by calculating the ratio of fluorescence intensities of BODIPY™ FL before and after the exchange reaction. Percent Inhibition was calculated by setting the fluorescence ratio from the reaction without test compound (DMSO control) and the fluorescence ratio from the reaction without SOS1 and GMPPNP as 0% and 100% inhibition, respectively. Dose response curves were analyzed using a 4-parameter logistic model to calculate IC50 values.

[2] = molecular target: T2, KRAS G12D (amino acids 1-169) (Homo sapiens, UniProt P01116, G12D); assay: SOS-catalyzed nucleotide exchange assay (Procedure B, BODIPY FL GDP displacement), KRAS G12D; conditions: read-out: KRAS G12D GNE IC50
T2 construct: made in house; host or cells: E. coli
T2 sequence (P01116 with tags, fused parts or gaps isoform P01116-2 G12D): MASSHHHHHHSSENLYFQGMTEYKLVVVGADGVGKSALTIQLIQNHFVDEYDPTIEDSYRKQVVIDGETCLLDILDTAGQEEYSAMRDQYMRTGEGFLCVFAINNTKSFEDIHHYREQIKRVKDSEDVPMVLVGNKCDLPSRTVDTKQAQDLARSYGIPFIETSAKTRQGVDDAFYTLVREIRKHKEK
Description: as §1, §2, §3

[3] = molecular target: T3, KRAS G12V (amino acids 1-169) (Homo sapiens, UniProt P01116, G12V); assay: SOS-catalyzed nucleotide exchange assay (Procedure B, BODIPY FL GDP displacement), KRAS G12V; conditions: read-out: KRAS G12V GNE IC50
T3 construct: made in house; host or cells: E. coli
T3 sequence (P01116 with tags, fused parts or gaps isoform P01116-2 G12V): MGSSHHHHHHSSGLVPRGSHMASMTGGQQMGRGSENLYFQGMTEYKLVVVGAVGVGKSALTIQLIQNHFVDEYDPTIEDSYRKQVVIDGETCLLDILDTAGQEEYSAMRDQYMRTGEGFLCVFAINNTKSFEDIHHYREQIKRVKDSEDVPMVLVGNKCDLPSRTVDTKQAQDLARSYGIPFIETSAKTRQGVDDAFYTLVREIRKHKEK
Description: as §1, §2, §3

[4] = molecular target: T4, KRAS WT (amino acids 1-169) (Homo sapiens, UniProt P01116); assay: SOS-catalyzed nucleotide exchange assay (Procedure B, BODIPY FL GDP displacement), KRAS WT; conditions: read-out: KRAS WT GNE IC50
T4 construct: made in house; host or cells: E. coli
T4 sequence (P01116 with tags, fused parts or gaps isoform P01116-2): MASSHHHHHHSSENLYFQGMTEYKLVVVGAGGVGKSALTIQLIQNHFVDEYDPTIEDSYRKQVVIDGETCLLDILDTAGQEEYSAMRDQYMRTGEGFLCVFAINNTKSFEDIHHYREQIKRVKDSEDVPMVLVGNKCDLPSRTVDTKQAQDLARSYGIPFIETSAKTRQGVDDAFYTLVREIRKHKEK
Description: as §1, §2, §3

Row | Structure (SMILES) | IC50 [1] | IC50 [2] | IC50 [3] | IC50 [4]
1 | COC1c2c(cc3[nH]ncc3c2-c2nccc3c2sc2nc(OC[C@@]45CCCN4C[C@H](F)C5)nc(N4CCOC[C@@](C)(O)C4)c23)CC1(F)F (stereo partly drawn) [Ex-110, (6S)-4-(8-(6,6-difluoro-5-methoxy-1,5,6,7-tetrahydrocyclopenta[f]in-dazol-4-yl)-2-(((2R,7aS)-2-fluorotetrahydro-1H-pyrrolizin-7a(5H)-yl)methoxy)pyrido[4′,3′:4,5]thi-no[2,3-d]pyrimidin-4-yl)-6-methyl-1,4-oxazepan-6-ol] | 57.7 nM | 37.7 nM | 43 nM | 47.5 nM
2 | C[C@@]1(O)COCCN(c2nc(OC[C@@]34CCCN3C[C@H](F)C4)nc3sc4c(-c5c(-c6ccco6)c(Cl)cc6[nH]ncc56)nncc4c23)C1 [Ex-282] | 5.84 nM | 4.26 nM | 12.5 nM | 13.5 nM
3 | Cc1cc2[nH]ncc2c(-c2nccc3c2sc2nc(OC[C@@]45CCCN4C[C@H](F)C5)nc(N4CCOCC5(CC(=O)N5)C4)c23)c1C(F)(F)F (stereo partly drawn) [Ex-194, 9-(2-(((2R,7aS)-2-fluoro-tetrahydro-1H-pyrrolizin-7a(5/7)-yl)methoxy)-8-(6-methyl-5-(trifluorometh-yl)-1H-indazol-4-yl)pyrido [4′,3′:4,5]thieno[2,3-d]pyrimidin-4-yl)-6-oxa-1,9-diazaspiro[3.6]decan-2-one] | 55.1 nM | 57.6 nM | 61.3 nM | 167 nM
4 | Cc1cc2[nH]ncc2c(-c2nccc3c2sc2nc(OC[C@@]45CCCN4C[C@H](F)C5)nc(N)c23)c1C(F)(F)F [Ex-189, 2-(((2R,7aS)-2-fluoro-tetrahydro-1H-pyrrolizin-7a(5H)-yl)methoxy)-8-(6-methyl-5-(trifluoromethyl)-1H-indazol-4-yl)pyrido [4′,3′:4,5]thieno[2,3-d] pyrimidin-4-amine] | 1360 nM | 3010 nM | 2200 nM | 2250 nM
5 | C[C@@]1(O)COCCN(c2nc(OC[C@@]34CCCN3C[C@H](F)C4)nc3sc4c(-c5c(C6=CCOC6)c(Cl)cc6[nH]ncc56)nccc4c23)C1 [Ex-74, (6S)-4-(8-(6-chloro-5-(2,5-dihydrofuran-3-yl)-1H-indazol-4-yl)-2-(((2R,7aS)-2-fluorotetrahydro-1H-pyrrolizin-7a(5H)-yl)methoxy)pyrido[4′,3′:4,5]thi-eno[2,3-d]pyrimidin-4-yl)-6-methyl-1,4-oxazepan-6-ol] | 819 nM | 438 nM | 1260 nM | 933 nM
6 | C#Cc1c(Cl)cc2[nH]ncc2c1-c1nccc2c1sc1nc(OC[C@@]34CCCN3C[C@H](F)C4)nc(N3CCOC[C@@](C)(O)C3)c12 [Ex-158, (6S)-4-(8-(6-chloro-5-ethynyl-1H-indazol-4-yl)-2-(((2R,7aS)-2-fluorotetrahydro-1H-pyrrolizin-7a(5H)-yl)methoxy)pyrido[4′,3′:4,5]thieno[2,3-d]pyrimidin-4-yl)-6-methyl-1,4-oxazepan-6-ol] | 15.4 nM | 7.18 nM | 15.5 nM | 26.9 nM
7 | Cc1cc2[nH]ncc2c(-c2nccn3c2c(C)c2nc(OC[C@@]45CCCN4C[C@H](F)C5)nc(N4CCOC[C@@](C)(O)C4)c23)c1C1CC1 [Ex-298, (S)-4-(9-(5-cyclopropyl-6-methyl-1H-indazol-4-yl)-2-(((2R,7aS)-2-fluorotetrahydro-1H-pyrrolizin-7a(5H)-yl)methoxy)-10-methylpyrazi-no[1′,2′:1,5]pyrrolo[3,2-d]pyrimidin-4-yl)-6-methyl-1,4-oxazepan-6-ol] | 85.2 nM | 49.8 nM | 159 nM | 113 nM
8 | CC1c2c(cc3[nH]ncc3c2-c2nccc3c2sc2nc(OC[C@@]45CCCN4C[C@H](F)C5)nc(N4CCOC[C@@](C)(O)C4)c23)C(C)(C)C1(F)F (stereo partly drawn) [Ex-100, (6S)-4-(8-(6,6-difluoro-5,7,7-trimethyl-1,5,6,7-tetrahydrocyclopenta[f]in-dazol-4-yl)-2-(((2R,7aS)-2-fluorotetrahydro-1H-pyrrolizin-7a(5H)-yl)methoxy)pyrido[4′,3′: 4,5]thieno[2,3-d]pyrimidin-4-yl)-6-methyl-1,4-oxazepan-6-ol] | 663 nM | 216 nM | 507 nM | 354 nM
9 | Cc1cc2[nH]nc(I)c2c(-c2nccc3c2sc2nc(OC[C@@]45CCCN4C[C@H](F)C5)nc(N4CCOC[C@@](C)(O)C4)c23)c1C(F)(F)F [Ex-149, (6S)-4-(2-(((2R,7aS)-2-fluorotetrahydro-1H-pyrrolizin-7a(5H)-yl)methoxy)-8-(3-iodo-6-methyl-5-(trifluoromethyl)-1H-indazol-4-yl)pyrido[4′,3′:4,5]thieno[2,3-d]pyrimidin-4-yl)-6-methyl-1,4-oxazepan-6-ol] | 1920 nM | 1470 nM | 2370 nM | 1350 nM
10 | CC1(C)Cc2cc3[nH]ncc3c(-c3nccc4c3sc3nc(OC[C@@]56CCCN5C[C@H](F)C6)nc(N5CCOC[C@@](C)(O)C5)c34)c2C1 [Ex-112, (6S)-4-(8-(6,6-dimethyl-1,5,6,7-tetrahydrocyclopenta[f]in-dazol-4-yl)-2-(((2R,7aS)-2-fluorotetrahydro-1H-pyrrolizin-7a(5H)-yl)methoxy)pyrido[4′,3′:4,5]thi-eno[2,3-d]pyrimidin-4-yl)-6-methyl-1,4-oxazepan-6-ol] | 518 nM | 274 nM | 402 nM | 473 nM
11 | Cc1cc2[nH]ncc2c(-c2nccc3c2sc2nc(OC[C@@]45CCCN4C[C@H](F)C5)nc(N4CCOCC(C)C4)c23)c1C(F)(F)F (stereo partly drawn) [Ex-182, 4-(2-(((2R,7aS)-2-fluoro-tetrahydro-1H-pyrrolizin-7a(5H)-yl)methoxy)-8-(6-methyl-5-(trifluorometh-yl)-1H-indazol-4-yl)pyrido [4′,3′:4,5]thieno[2,3-d]pyr-imidin-4-yl)-6-methyl-1,4-oxazepane] | 1260 nM | 3630 nM | 3200 nM | 2190 nM
12 | Cc1cc2[nH]ncc2c(-c2nccn3c2c(F)c2nc(OC[C@@]45CCCN4C[C@H](F)C5)nc(N4CCOC[C@@](C)(O)C4)c23)c1C1CC1 [Ex-306, (S)-4-(9-(5-cyclopropy1-6-methyl-1H-indazol-4-yl)-10-fluoro-2-(((2R,7aS)-2-fluorotetrahydro-1H-pyrrolizin-7a(5H)-yl)methoxy)pyrazino[1′2′:1,5]pyrrolo[3,2-d]pyrimidin-4-yl)-6-methyl-1,4-oxazepan-6-o1] | 10.8 nM | 4.7 nM | 18.9 nM | 16.6 nM
13 | C[C@H]1CN2C[C@H](F)C[C@@]2(COc2nc(N3CCOC[C@@](C)(O)C3)c3c(n2)sc2c(-c4c(C5CC5)c(Cl)cc5[nH]ncc45)nccc23)C1 [Ex-226, (6S)-4-(8-(6-chloro-5-cyclopropyl-1H-indazol-4-yl)-2-(((2R,6R,7aR)-2-fluoro-6-methyl-tetrahydro-1H-pyrrolizin-7a(5H)-yl)methoxy)pyrido [4′,3′:4,5]thieno[2,3-d]pyrimidin-4-yl)-6-methyl-1,4-oxaze-pan-6-ol] | 48 nM | 30.6 nM | 42.1 nM | 50.9 nM
14 | Cc1cc2[nH]ncc2c(-c2nccc3c2sc2nc(OC[C@@]45CCCN4C[C@H](F)C5)nc(N4C[C@H](O)C[C@H]4C)c23)c1C(F)(F)F [Ex-183, (3R,5R)-1-(2-(((2R,7aS)-2-fluorotetrahydro-1H-pyrrolizin-7a(5H)-yl)methoxy)-8-(6-methyl-5-(trifluoromethyl)-1H-indazol-4-yl)pyrido[4′,3′: 4,5]thieno[2,3-d]pyrimi-din-4-yl)-5-methylpyrrol-idin-3-ol] | 2880 nM | 2190 nM | 4640 nM | 2990 nM
15 | C#Cc1cccc2cccc(-c3nncc4c3sc3nc(OC[C@@]56CCCN5C[C@H](F)C6)nc(N5CCOC[C@@](C)(O)C5)c34)c12 [Ex-285] | 645 nM | 322 nM | 1000 nM | 889 nM
